In ChEMBL document CHEMBL5512613, “Design and synthesis of novel 3-amino-5-phenylpyrazole derivatives as tubulin polymerization inhibitors targeting the colchicine-binding site” (Eur J Med Chem, 2024):
The source made the active and inactive calls. No cut-off for these calls is given here.

Tests used:
[1] = tested on: MCF7; test: Induction of cell cycle arrest in human MCF7 cells assessed as proportion of cells at G1 phase at 12.5 nM incubated for 24 hrs by PI staining based flow cytometry (reference value: 64.5%); type: functional
[2] = tested on: MCF7; test: Induction of cell cycle arrest in human MCF7 cells assessed as proportion of cells at S phase at 12.5 nM incubated for 24 hrs by PI staining based flow cytometry (reference value: 21.1%); type: functional
[3] = tested on: MCF7; test: Induction of cell cycle arrest in human MCF7 cells assessed as increase in Cdc25c protein expression at 6.25 to 50 nM incubated for 24 hrs by western blot analysis; type: functional, cell-based; conditions: dose 6.25-50 nM
[4] = tested on: MCF7; test: Induction of cell cycle arrest in human MCF7 cells assessed as increase in CDK7 protein expression at 6.25 to 50 nM incubated for 24 hrs by western blot analysis; type: functional, cell-based; conditions: dose 6.25-50 nM
[5] = tested on: MCF7; test: Induction of cell cycle arrest in human MCF7 cells assessed as proportion of cells at G1 phase at 25 nM incubated for 24 hrs by PI staining based flow cytometry (reference value: 64.5%); type: functional
[6] = tested on: MCF7; test: Induction of cell cycle arrest in human MCF7 cells assessed as proportion of cells at G2 phase at 12.5 nM incubated for 24 hrs by PI staining based flow cytometry (reference value: 14.4%); type: functional
[7] = molecular target: T1, Tubulin (Homo sapiens) (UniProt P68371+Q9H4B7+P0DPH7+P68366+Q13509+Q71U36+P04350+Q3ZCM7+P07437+P68363+Q9BQE3+Q6PEY2+Q13885+Q9BVA1+Q9BUF5); test: Inhibition of tubulin polymerization in human MCF7 cells assessed as disruption of microtubule network into punctate at 25 to 200 nM incubated for 8 hrs by DAPI staining based immunofluorescence assay; type: cell-based; conditions: dose 25-200 nM
[8] = molecular target: T1, Tubulin (Homo sapiens); test: Displacement of [3H]colchicine from tubulin (unknown origin) at 1 uM incubated for 2 hrs by scinitillation proximity assay; type: protein-complex assay
[9] = tested on: MCF7; test: Antitumor activity against human MCF7 cells xenografted in BALB/c mouse assessed as inhibition of tumor growth by measuring decrease in tumor weight at 10 mg/kg, ip administered every 3 days for 21 days; type: functional; conditions: MCF7, 504 h, time 21 day, read-out: TGI
[10] = tested on: A549; test: Inhibition of cell migration in human A549 cells at 2.5 to 10 nM incubated for 12 to 48 hrs by fluorescent inverted microscopy; type: functional, cell-based; conditions: dose 2.5-10 nM, time 12-48 hrs
[11] = tested on: MCF7; test: Induction of cell cycle arrest in human MCF7 cells assessed as proportion of cells at S phase at 6.25 nM incubated for 24 hrs by PI staining based flow cytometry (reference value: 21.1%); type: functional
[12] = tested on: MDA-MB-231; test: Antiproliferative activity against human MDA-MB-231 cells assessed as inhibition of cell growth incubated for 48 hrs by MTT assay; type: functional, cell-based; conditions: MDA-MB-231, 48 h
[13] = tested on: MCF7; test: Antitumor activity against human MCF7 cells xenografted in BALB/c mouse assessed as inhibition of tumor growth by measuring decrease in tumor weight at 20 mg/kg, ip administered every 3 days for 21 days; type: functional; conditions: MCF7, 504 h, time 21 day, read-out: TGI
[14] = tested on: MCF7; test: Inhibition of colony formation in human MCF7 cells at 5 to 20 nM incubated for 2 weeks in 5% CO2 at 37 degC by crystal violet staining based analysis; type: functional, cell-based; conditions: dose 5-20 nM
[15] = Toxicity against BALB/c mouse xenografted with human MCF7 cells assessed as body weight changes at 5 to 20 mg/kg, ip administered every 3 days for 21 days; type: organism-based; conditions: in vivo, 504 h, dose 5-20 mg/kg, time 21 day
[16] = tested on: MCF7; test: Induction of apoptosis in human MCF7 cells at 50 nM incubated for 12 to 48 hrs by AnnexinV-FITC/PI staining based flow cytometry; type: functional, cell-based; conditions: time 12-48 hrs, TDE = time-dependent effect
[17] = tested on: MCF7; test: Antitumor activity against human MCF7 cells xenografted in BALB/c mouse assessed as inhibition of tumor growth by measuring decrease in tumor weight at 5 mg/kg, ip administered every 3 days for 21 days; type: functional; conditions: MCF7, 504 h, time 21 day, read-out: TGI
[18] = molecular target: Tubulin; test: Inhibition of tubulin polymerization (unknown origin) measured for 60 mins by fluorescence based analysis; type: protein-complex assay, Homo sapiens
[19] = molecular target: T1, Tubulin (Homo sapiens); test: Displacement of [3H]colchicine from tubulin (unknown origin) at 5 uM incubated for 2 hrs by scinitillation proximity assay; type: protein-complex assay
[20] = tested on: MCF7; test: Induction of apoptosis in human MCF7 cells assessed as increase in Bim protein expression at 6.25 to 50 nM incubated for 24 hrs by western blot analysis; type: functional, cell-based; conditions: dose 6.25-50 nM
[21] = tested on: MCF7; test: Induction of cell cycle arrest in human MCF7 cells assessed as proportion of cells at S phase at 25 nM incubated for 12 hrs by PI staining based flow cytometry (reference value: 21.1%); type: functional
[22] = tested on: MCF7; test: Induction of cell cycle arrest in human MCF7 cells assessed as increase in cyclin B1 protein expression at 6.25 to 50 nM incubated for 24 hrs by western blot analysis; type: functional, cell-based; conditions: dose 6.25-50 nM
[23] = tested on: MCF7; test: Induction of cell cycle arrest in human MCF7 cells assessed as proportion of cells at G1 phase at 25 nM incubated for 6 hrs by PI staining based flow cytometry (reference value: 64.5%); type: functional
[24] = molecular target: Tubulin beta (Homo sapiens) (UniProt P68371+Q9H4B7+Q13509+P04350+Q3ZCM7+P07437+Q13885+Q9BVA1+Q9BUF5+A6NNZ2); test: Binding affinity to beta-tubulin (unknown origin) assessed as decrease in beta-tubulin/EBI adduct formation at 0.2 to 25 uM incubated for 2 hrs followed by incubation with EBI for 1.5 hrs by EBI competition based western blot analysis; type: protein assay; conditions: dose 0.2-25 µM, time 3.5 hrs
[25] = tested on: A549; test: Inhibition of cell migration in human A549 cells assessed as decrease in number of cells passing through membrane at 6.25 to 50 nM incubated for 24 hrs by transwell assay; type: functional, cell-based; conditions: dose 6.25-50 nM
[26] = tested on: MCF7; test: Induction of apoptosis in human MCF7 cells assessed as increase in Bax protein expression at 6.25 to 50 nM incubated for 24 hrs by western blot analysis; type: functional, cell-based; conditions: dose 6.25-50 nM
[27] = tested on: MCF7; test: Induction of cell cycle arrest in human MCF7 cells assessed as proportion of cells at S phase at 25 nM incubated for 6 hrs by PI staining based flow cytometry (reference value: 21.1%); type: functional
[28] = tested on: MCF7; test: Induction of cell cycle arrest in human MCF7 cells assessed as proportion of cells at S phase at 25 nM incubated for 24 hrs by PI staining based flow cytometry (reference value: 21.1%); type: functional
[29] = tested on: HeLa; test: Antiproliferative activity against human HeLa cells assessed as inhibition of cell growth incubated for 48 hrs by MTT assay; type: functional, cell-based
[30] = tested on: MCF7; test: Induction of cell cycle arrest in human MCF7 cells assessed as proportion of cells at G2 phase at 25 nM incubated for 12 hrs by PI staining based flow cytometry (reference value: 14.4%); type: functional
[31] = tested on: MCF7; test: Induction of apoptosis in human MCF7 cells assessed as increase in cleaved PARP protein expression at 6.25 to 50 nM incubated for 24 hrs by western blot analysis; type: functional, cell-based; conditions: dose 6.25-50 nM
[32] = tested on: MCF7; test: Induction of apoptosis in human MCF7 cells assessed as increase in cleaved caspase-3 protein expression at 6.25 to 50 nM incubated for 24 hrs by western blot analysis; type: functional, cell-based; conditions: dose 6.25-50 nM

With `COc1cc(C(=O)n2nc(N)cc2-c2ccc(C)cc2)cc(OC)c1OC` the Activity [1] was 45.1%, the Activity [2] was 15.7% and the Activity [3] was “Active”. The Activity [4] was “Active”, the Activity [5] was 7.65% and the Activity [6] was 39.2%. The inhibition [7] was “Active”, the inhibition [8] was 68.4% and the inhibition in vivo at 10 mg/kg [9] was 36.1%. The inhibition [10] was “Dose-Dependent Effect”, the Activity [11] was 18.4% and the IC50 [12] was 40 nM. The inhibition in vivo at 20 mg/kg [13] was 69%, the inhibition [14] was “Active” and the Activity [15] was “Non-Toxic”. For the same compound, the Activity [16] was “Tde”, the inhibition in vivo at 5 mg/kg [17] was 27% and the IC50 [18] was 1870 nM. The inhibition [19] was 91.4%, the Activity [20] was “Active” and the Activity [21] was 22.9%. The Activity [22] was “Active”, the Activity [23] was 31.3% and the Activity [24] was “Active”. The inhibition [25] was “Active”, the Activity [26] was “Active” and the Activity [27] was 22%. For the same compound, the Activity [28] was 10.65%, the IC50 [29] was 110 nM and the Activity [30] was 62.8%. For the same compound, the Activity [31] was “Active” and the Activity [32] was “Active”.
